Measured values taken from ChEMBL document CHEMBL5365539, “Selective modifications of lactose and N-acetyllactosamine with sulfate and aromatic bulky groups unveil unique structural insights in galectin-1-ligand recognition” (Bioorg Med Chem, 2023).

Tests used:
Galectin-1 [1] = target: T1, Galectin-1 (Homo sapiens, UniProt P09382); assay: Inhibition of asialofetuin binding to human recombinant Gal-1 transfected in Escherichia coli BL21 (DE3) incubated for 2 hrs by competitive solid-phase assay
Galectin-1 [2] = target: T1, Galectin-1; assay: Potency index, ratio of test compound IC50 to (2S,3R,4S,5R,6R)-2-(((2R,3S,4R,5R,6R)-4,5 dihydroxy-2-(hydroxymethyl)-6 methoxytetrahydro-2H-pyran-3-yl)oxy)-6(hydroxymethyl)tetrahydro-2H-pyran-3,4,5-triol IC50 for inhibition of asialofetuin binding to human recombinant Gal-1 transfected in Escherichia coli BL21 (DE3) incubated for 2 hrs by competitive solid-phase assay
Galectin-1 [3] = target: T1, Galectin-1; assay: Binding affinity to human recombinant Gal-1 assessed as gibbs free energy change by ITC analysis
Galectin-1 [4] = target: T1, Galectin-1; assay: Binding affinity to human recombinant Gal-1 assessed as dissociation constant by ITC analysis
Galectin-1 [5] = target: T1, Galectin-1; assay: Binding affinity to human recombinant Gal-1 assessed as association constant by ITC analysis
Galectin-1 [6] = target: T1, Galectin-1; assay: Binding affinity to human recombinant Gal-1 assessed as change in entropy by ITC analysis
Galectin-1 [7] = target: T1, Galectin-1; assay: Binding affinity to human recombinant Gal-1 assessed as change in enthalpy by ITC analysis

T1 sequence (P09382 whole entry): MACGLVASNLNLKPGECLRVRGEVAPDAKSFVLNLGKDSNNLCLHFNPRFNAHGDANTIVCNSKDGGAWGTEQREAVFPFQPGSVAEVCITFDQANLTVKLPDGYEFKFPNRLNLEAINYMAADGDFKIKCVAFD

| Compound | IC50 (Galectin-1 [1]) [mM] | Ratio IC50 (Galectin-1 [2]) | deltaG (Galectin-1 [3]) [kJ/mol] | Kd (Galectin-1 [4]) [mM] | Ka (Galectin-1 [5]) | deltaS (Galectin-1 [6]) [J/mol.K] | deltaH (Galectin-1 [7]) [kJ/mol] |
| --- | --- | --- | --- | --- | --- | --- | --- |
| COc1cc(C(=O)OC(C)(C)C)ccc1O[C@@H]1O[C@H](CO)[C@@H](O[C@@H]2O[C@H](CO)[C@H](O)[C@H](O)[C@H]2O)[C@H](O)[C@H]1O | 3.6 | 0.48 | -21 | 0.206 | 4.9 10^3/M | -23.1 | -27.9 |
| COc1cc(CO)ccc1O[C@@H]1O[C@H](CO)[C@@H](O[C@@H]2O[C@H](CO)[C@H](O)[C@H](O)[C@H]2O)[C@H](O)[C@H]1O | 10.8 | 1.46 | – | – | – | – | – |
| O=[N+]([O-])c1ccc(O[C@@H]2O[C@H](CO)[C@@H](O[C@@H]3O[C@H](CO)[C@H](O)[C@H](OS(=O)(=O)O)[C@H]3O)[C@H](O)[C@H]2O)cc1 | 5.9 | 0.79 | – | – | – | – | – |
| O=[N+]([O-])c1ccc(O[C@@H]2O[C@H](CO)[C@@H](O[C@@H]3O[C@H](CO)[C@H](O)[C@H](O)[C@H]3O)[C@H](O)[C@H]2O)cc1 | 6.6 | 0.89 | – | – | – | – | – |
| COc1cc(C=O)ccc1O[C@@H]1O[C@H](CO)[C@@H](O[C@@H]2O[C@H](CO)[C@H](O)[C@H](OS(=O)(=O)O)[C@H]2O)[C@H](O)[C@H]1O | 6.1 | 0.82 | – | – | – | – | – |
| OC[C@H]1O[C@@H](O[C@H]2[C@H](O)[C@@H](O)C(O)O[C@@H]2CO)[C@H](O)[C@@H](O)[C@H]1O (stereo not given in full) | – | – | – | – | 3.2 10^3/M | -28 | -28.4 |
| COc1cc(/C=C/C(=O)O)ccc1O[C@@H]1O[C@H](CO)[C@@H](O[C@@H]2O[C@H](CO)[C@H](O)[C@H](O)[C@H]2O)[C@H](O)[C@H]1O | 4.8 | 0.65 | – | – | – | – | – |
| COC(=O)c1ccc(O[C@@H]2O[C@H](CO)[C@@H](O[C@@H]3O[C@H](CO)[C@H](O)[C@H](O)[C@H]3O)[C@H](O)[C@H]2O)c(OC)c1 | 7.5 | 1.02 | – | – | – | – | – |
| COc1cc(C(=O)OC(C)(C)C)ccc1O[C@@H]1O[C@H](CO)[C@@H](O[C@@H]2O[C@H](CO)[C@H](O)[C@H](OS(=O)(=O)O)[C@H]2O)[C@H](O)[C@H]1O | 3.2 | 0.43 | -22.5 | 0.117 | 8.6 10^3/M | -21.3 | -29 |

Results, then the compound that gave them:

| IC50 (Galectin-1 [1]) [mM] | Ratio IC50 (Galectin-1 [2]) | deltaG (Galectin-1 [3]) [kJ/mol] | Kd (Galectin-1 [4]) [mM] | Ka (Galectin-1 [5]) | deltaS (Galectin-1 [6]) [J/mol.K] | deltaH (Galectin-1 [7]) [kJ/mol] | Compound |
| --- | --- | --- | --- | --- | --- | --- | --- |
| 7.4 | – | – | – | – | – | – | CO[C@@H]1O[C@H](CO)[C@@H](O[C@@H]2O[C@H](CO)[C@H](O)[C@H](O)[C@H]2O)[C@H](O)[C@H]1O |
| 5.7 | 0.78 | – | – | – | – | – | CC(=O)N[C@H]1[C@H](Oc2ccc([N+](=O)[O-])cc2)O[C@H](CO)[C@@H](O[C@@H]2O[C@H](CO)[C@H](O)[C@H](O)[C@H]2O)[C@@H]1O |
| 6.1 | 0.83 | – | – | – | – | – | C#CCO[C@@H]1O[C@H](CO)[C@@H](O[C@@H]2O[C@H](CO)[C@H](O)[C@H](O)[C@H]2O)[C@H](O)[C@H]1O |
| 3.9 | 0.53 | -20.2 | 0.284 | 3.5 10^3/M | -6.2 | -22.1 | COc1cc(C(=O)O)ccc1O[C@@H]1O[C@H](CO)[C@@H](O[C@@H]2O[C@H](CO)[C@H](O)[C@H](OS(=O)(=O)O)[C@H]2O)[C@H](O)[C@H]1O |
| 7.5 | 1.02 | – | – | – | – | – | CC(=O)N[C@H]1C(O)O[C@H](CO)[C@@H](O[C@@H]2O[C@H](CO)[C@H](O)[C@H](O)[C@H]2O)[C@@H]1O (stereo not given in full) |
| 9.7 | 1.31 | – | – | – | – | – | C#CCO[C@@H]1O[C@H](CO)[C@@H](O[C@@H]2O[C@H](CO)[C@H](O)[C@H](O[C@]3(C(=O)O)C[C@H](O)[C@@H](NC(C)=O)[C@H]([C@@H](O)[C@H](O)CO)O3)[C@H]2O)[C@H](O)[C@H]1NC(C)=O |
| 4.8 | 0.65 | – | – | – | – | – | C#CCO[C@@H]1O[C@H](CO)[C@@H](O[C@@H]2O[C@H](CO)[C@H](O)[C@H](OS(=O)(=O)O)[C@H]2O)[C@H](O)[C@H]1NC(C)=O |
| 7.3 | 0.99 | – | – | – | – | – | C#CCO[C@@H]1O[C@H](CO)[C@@H](O[C@@H]2O[C@H](CO)[C@H](O)[C@H](OCC(=O)O)[C@H]2O)[C@H](O)[C@H]1NC(C)=O |
| 6.1 | 0.83 | – | – | – | – | – | CC(=O)N[C@H]1[C@H](Oc2ccc([N+](=O)[O-])cc2)O[C@H](CO)[C@@H](O[C@@H]2O[C@H](CO)[C@H](O)[C@H](OS(=O)(=O)O)[C@H]2O)[C@@H]1O |
| 10.7 | 1.45 | – | – | – | – | – | C#CCO[C@@H]1O[C@H](CO)[C@@H](O[C@@H]2O[C@H](CO)[C@H](O)[C@H](O)[C@H]2O)[C@H](O)[C@H]1NC(C)=O |
| 4.1 | 0.56 | – | – | – | – | – | COc1cc(CCC(=O)O)ccc1O[C@@H]1O[C@H](CO)[C@@H](O[C@@H]2O[C@H](CO)[C@H](O)[C@H](O)[C@H]2O)[C@H](O)[C@H]1O |
